Measured values: patent US20240174649A1, “CULLIN-RING E3 UBIQUITIN LIGASE 4 INHIBITOR COMPOUNDS AND METHODS OF THEIR USE” (ICAHN SCHOOL OF MEDICINE AT MOUNT SINAI, priority 2021, published 2024)

Experiments:
cancer cells = assay: Apoptosis, Annexin V flow cytometry; type: cell-based
Procedure, shortened: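 5×10^4 cells were seeded 24 h before treatment, then cultured with compound for 48 h. Pelleted cells were washed in Annexin V binding buffer (HEPES pH 7.4, with CaCl2) and stained in the dark with Annexin V-FITC (2 μg/ml) for 5 min. Apoptosis was read by flow cytometry.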

Mouse i.p. PK = type: in vivo
E3 CRL4^CRBN = E3 CRL4^CRBN (Homo sapiens (Human), UniProt Q13619); assay: Lenalidomide-dependent ubiquitination of CK1α by CRL4^CRBN; type: biochemical
Description: To prepare Flag-CK1α as a substrate for ubiquitination experiments described in FIGS. 2A-E, the expression vector (purchased from Addgene) was introduced to HEK-293T cells by transfection using Lipofectamine RNAIMAX (ThermoFisher) according to manufacturer's protocols. Cell extracts were prepared and the concentration of Flag-CK1α was determined using immunoblot analysis with purified GST-CK1α (Sigma) as a standard. Typically, 50-100 μl of extracts was used to attach to ˜15 μl of M2 beads (Sigma) at 4° C. for 2 hours. Unbound materials were removed by washing (first three times with a washing buffer containing 50 mM Tris-HCl, pH8.0, 1% Triton X-100, 0.5M NaCl, and then twice with buffer A plus 50 mM NaCl) and the resulting beads were used in the ubiquitination assay (15 μl). The concentration of Flag-CK1α was determined to be ˜100 nM.
Immobilized, Flag-CK1α-containing beads were initially incubated with a reaction mixture (10 μl) containing 50 mM Tris-HCl (pH7.4), 0.5 mM DTT, 0.1 mg/ml of BSA, 5 mM MgCl2, 100 nM CRL4^CRBN, 1 μM Lenalidomide (Selleckchem), 1 μM Fluorescein-Ub, 100 nM E1, and 1 μM UbcH5c. ATP (20 mM) was added last to initiate the reaction. The reaction was incubated on a thermomixer (1,300 rpm; Eppendorf) at 37° C. for 5 min. The resulting beads were then added with a second reaction mixture (5 μl) containing 50 mM Tris-HCl (pH7.4), 0.5 mM DTT, 0.1 mg/ml of BSA, 5 mM MgCl2, 4 μM I-Ub-Q31C/K48R, and 1 μM Cdc34b, in the presence or absence of E3 inhibitors as specified. The reaction was incubated on a thermomixer at 37° C. for times as indicated. The concentrations of enzymes, Ubs, and compounds stated above were adjusted based on a final volume of 15 μl. The beads were then washed using conditions as described above. Materials eluted from the beads were separated by 4-20% SDS-PAGE followed by detection with fluorescence scanning (Typhoon 9500) or immunoblot using anti-CK1α antibody (Abcam). […]

[1] = End-of-study PK in MV4-11 xenograft mice; type: in vivo; settings: mouse
Description: Tumor tissues were weighed at the end of study. At the endpoint, 100 μl blood and tumors from Group 3 (G3) and Group 4 (G4) were collected as shown in the Table 3, for further pharmacokinetics or biomarker analysis. Plasma were isolated from all blood samples.

CACO-2 = CACO-2 permeability; type: in vitro ADME; settings: for PGP substrate: PGP-transporter (MDR1)
Description: ADME studies on compounds #33-11 and KH-4-43 for “absorption, distribution, metabolism, and excretion” were carried out at CRO, BioDuro. Kinetic solubility, plasma and microsome stability in rat, mouse and human, as well as Caco-2 Permeability were examined.

MV4-11 tumors = assay: AML MV4-11 subcutaneous xenograft; settings: for tumor inhibition value: IP
ROC1-CUL1 = ROC1-CUL1 (Homo sapiens (Human), UniProt Q13616); assay: Gel-based di-Ub synthesis; type: biochemical
Description: For the experiment shown in FIG. 7 and FIGS. 8A-B, the di-Ub synthesis reaction was carried out by preassembling the donor Ub mix. The donor Ub mixture (5 μl) contained 50 mM Tris HCl (pH 7.4), 5 mM MgCl2, 2 mM ATP, 0.5 mM DTT, 0.1 mg/mL BSA, 1 μM Ub-NC-I555, 0.1 μM E1, and 2 μM Cdc34b. The reaction was incubated for 5 min at 37° C. Compounds, in the amounts indicated, were added followed by the addition of ROC1-CUL1 (or related E3 subcomplex) in amounts as indicated and 10 μM PK-Ub (1-74) (as a receptor). The final volume was adjusted to 10 μl. The reaction was incubated for 10 min at 37° C.
For the experiments shown in FIG. 8C and FIG. 9, the reaction was assembled in a 10-μl mixture containing 50 mM Tris HCl (pH 7.4), 5 mM MgCl2, 0.5 mM DTT, 0.1 mg/mL BSA, 0.05 μM Ub-NC-I555, 2,5 μM PK-Ub (1-74), 0.1 μM E1, 1 μM Cdc34b, and 80 nM ROC1-CUL1 with or without compound. The reaction was initiated by the addition of 2 mM ATP. The products were separated by 4-20% SDS/PAGE and were visualized and quantified on a Typhoon FLA 9500 laser scanner (GE).

Chain of E3 CRL4^CRBN (Q13619 whole entry): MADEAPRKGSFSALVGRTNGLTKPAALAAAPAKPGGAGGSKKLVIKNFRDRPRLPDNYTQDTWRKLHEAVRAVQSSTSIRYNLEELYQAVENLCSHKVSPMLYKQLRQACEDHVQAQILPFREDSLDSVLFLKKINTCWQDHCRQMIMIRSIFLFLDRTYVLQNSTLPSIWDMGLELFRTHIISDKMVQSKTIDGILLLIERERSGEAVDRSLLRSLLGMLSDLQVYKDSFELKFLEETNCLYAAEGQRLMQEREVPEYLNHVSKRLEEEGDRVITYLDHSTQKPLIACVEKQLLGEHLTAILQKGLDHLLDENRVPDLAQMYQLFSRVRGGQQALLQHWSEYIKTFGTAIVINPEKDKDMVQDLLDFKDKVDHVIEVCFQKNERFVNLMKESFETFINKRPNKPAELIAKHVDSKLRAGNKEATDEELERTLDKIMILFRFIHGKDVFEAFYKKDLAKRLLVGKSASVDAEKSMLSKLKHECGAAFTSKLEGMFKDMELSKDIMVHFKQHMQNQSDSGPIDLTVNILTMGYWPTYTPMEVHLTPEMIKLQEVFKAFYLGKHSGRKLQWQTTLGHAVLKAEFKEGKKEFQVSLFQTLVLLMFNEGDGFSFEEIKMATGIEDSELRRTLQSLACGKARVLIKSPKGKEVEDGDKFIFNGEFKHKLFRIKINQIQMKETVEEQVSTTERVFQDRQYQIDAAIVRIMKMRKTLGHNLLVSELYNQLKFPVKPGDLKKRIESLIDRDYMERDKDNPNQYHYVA
Chain of E3 CRL4^CRBN (P62877 whole entry partner): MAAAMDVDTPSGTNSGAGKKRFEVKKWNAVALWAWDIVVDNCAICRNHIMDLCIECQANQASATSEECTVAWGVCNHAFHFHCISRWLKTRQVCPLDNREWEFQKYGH
Chain of E3 CRL4^CRBN (Q16531 whole entry partner): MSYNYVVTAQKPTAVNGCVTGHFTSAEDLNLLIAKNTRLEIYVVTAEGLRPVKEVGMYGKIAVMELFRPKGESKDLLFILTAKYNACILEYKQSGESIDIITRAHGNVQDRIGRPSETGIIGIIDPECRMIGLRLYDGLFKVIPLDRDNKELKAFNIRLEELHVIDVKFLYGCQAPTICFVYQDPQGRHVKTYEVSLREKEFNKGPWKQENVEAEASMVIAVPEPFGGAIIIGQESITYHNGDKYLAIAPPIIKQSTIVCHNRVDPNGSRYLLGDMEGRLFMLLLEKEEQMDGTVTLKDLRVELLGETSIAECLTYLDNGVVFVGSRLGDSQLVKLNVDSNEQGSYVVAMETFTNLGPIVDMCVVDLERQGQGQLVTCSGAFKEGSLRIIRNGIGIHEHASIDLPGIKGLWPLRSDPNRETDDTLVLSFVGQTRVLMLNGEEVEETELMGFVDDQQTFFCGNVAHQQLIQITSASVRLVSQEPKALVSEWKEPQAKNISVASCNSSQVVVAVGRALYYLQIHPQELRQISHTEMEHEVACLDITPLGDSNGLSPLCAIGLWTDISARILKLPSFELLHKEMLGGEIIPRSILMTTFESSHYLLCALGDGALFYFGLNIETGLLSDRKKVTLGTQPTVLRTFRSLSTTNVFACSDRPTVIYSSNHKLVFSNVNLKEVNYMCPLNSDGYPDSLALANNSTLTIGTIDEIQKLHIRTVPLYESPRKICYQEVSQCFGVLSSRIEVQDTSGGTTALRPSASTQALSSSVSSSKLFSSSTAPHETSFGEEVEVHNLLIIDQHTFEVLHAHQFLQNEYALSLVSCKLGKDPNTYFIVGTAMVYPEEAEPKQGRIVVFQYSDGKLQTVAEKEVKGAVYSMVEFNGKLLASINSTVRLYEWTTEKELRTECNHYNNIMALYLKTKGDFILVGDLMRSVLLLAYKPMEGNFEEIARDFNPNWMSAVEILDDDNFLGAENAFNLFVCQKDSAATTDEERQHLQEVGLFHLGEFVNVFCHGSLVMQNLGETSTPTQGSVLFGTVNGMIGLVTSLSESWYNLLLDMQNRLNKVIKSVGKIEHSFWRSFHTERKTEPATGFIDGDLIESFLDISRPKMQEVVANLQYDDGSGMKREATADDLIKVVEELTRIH
Chain of E3 CRL4^CRBN (Q96SW2 whole entry partner): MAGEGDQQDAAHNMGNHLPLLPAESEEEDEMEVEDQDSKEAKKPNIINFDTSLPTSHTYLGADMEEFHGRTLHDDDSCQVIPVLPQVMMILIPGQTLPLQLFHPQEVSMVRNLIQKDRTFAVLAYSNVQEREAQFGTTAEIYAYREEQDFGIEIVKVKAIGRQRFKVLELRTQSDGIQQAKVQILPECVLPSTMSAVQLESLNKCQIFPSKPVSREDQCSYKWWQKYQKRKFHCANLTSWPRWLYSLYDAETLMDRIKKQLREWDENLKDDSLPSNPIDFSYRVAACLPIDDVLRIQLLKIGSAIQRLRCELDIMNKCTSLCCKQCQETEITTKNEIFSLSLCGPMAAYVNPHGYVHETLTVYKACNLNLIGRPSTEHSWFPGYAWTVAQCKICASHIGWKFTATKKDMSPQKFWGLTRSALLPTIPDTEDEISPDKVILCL
Chain of ROC1-CUL1 (Q13616 whole entry): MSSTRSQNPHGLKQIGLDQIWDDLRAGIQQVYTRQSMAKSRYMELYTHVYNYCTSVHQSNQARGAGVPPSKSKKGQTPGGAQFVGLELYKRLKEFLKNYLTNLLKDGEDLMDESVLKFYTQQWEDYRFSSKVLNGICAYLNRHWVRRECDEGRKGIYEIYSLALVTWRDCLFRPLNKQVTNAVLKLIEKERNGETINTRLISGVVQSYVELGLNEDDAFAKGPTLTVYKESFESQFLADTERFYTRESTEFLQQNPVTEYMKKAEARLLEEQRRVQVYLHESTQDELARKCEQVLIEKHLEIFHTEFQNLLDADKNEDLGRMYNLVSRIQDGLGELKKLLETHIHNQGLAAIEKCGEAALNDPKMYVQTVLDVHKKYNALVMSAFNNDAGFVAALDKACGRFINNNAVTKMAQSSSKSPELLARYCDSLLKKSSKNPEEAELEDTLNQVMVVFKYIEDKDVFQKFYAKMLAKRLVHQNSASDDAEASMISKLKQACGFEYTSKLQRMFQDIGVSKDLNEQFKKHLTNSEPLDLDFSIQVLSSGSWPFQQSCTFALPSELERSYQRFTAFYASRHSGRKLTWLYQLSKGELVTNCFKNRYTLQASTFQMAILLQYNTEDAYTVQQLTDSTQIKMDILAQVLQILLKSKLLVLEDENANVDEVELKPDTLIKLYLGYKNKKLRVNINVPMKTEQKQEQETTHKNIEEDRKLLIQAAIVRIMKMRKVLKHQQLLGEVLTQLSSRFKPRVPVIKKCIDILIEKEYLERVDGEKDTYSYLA
Chain of ROC1-CUL1 (P62877 whole entry partner): as the sequence (P62877 whole entry partner) above

O=c1c(-c2cnn(-c3ccccc3)c2)c(C(F)(F)F)oc2c(O)c(O)ccc12 [#33-11, 7,8-dihydroxy-3-(1-phenyl-1H-pyrazol-4-yl)-2-(trifluoromethyl)-4H-chromen-4-one]
EC50 (cancer cells; Table 6): 13 µM | Ctrough (Mouse i.p. PK; i.p. 100 mg/kg in DMSO): 160 nM | T1/2 (Mouse i.p. PK; i.p. 100 mg/kg in DMSO): 7.2 h | AUC (Mouse i.p. PK; i.p. 100 mg/kg in DMSO, 0-24 hr): 19.6 μM-hr | inhibition of ubiquitination of CK1α (E3 CRL4^CRBN; at 30 μM): Significant inhibitory effects | AUC ([1]; tumor, mice dosed with #33-11, read-out: AUC in tumors): 0.75 µM·h | A:B/B:A (CACO-2): 1.95 | Permeability (CACO-2): high | PGP substrate (CACO-2): probable | tumor growth inhibition (MV4-11 tumors; earlier AML MV4-11 xenograft model study): did not reach statistically significant levels | level of di-Ub product (ROC1-CUL1; up to 150 μM): remained almost unchanged

O=c1c(-c2cnn(-c3ccc(Cl)cc3)c2)c(C(F)(F)F)oc2c(O)c(O)ccc12 [KH-4-43, 3-(1-(4-chlorophenyl)-1H-pyrazol-4-yl)-7,8-dihydroxy-2-(trifluoromethyl)-4H-chromen-4-one]
EC50 (cancer cells; Table 1): 4 µM | EC50 (cancer cells; Table 6): 8 µM | 24 hr C-trough concentration (Mouse i.p. PK; i.p. 100 mg/kg): 89 nM | tolerability (Mouse i.p. PK; i.p. 100 mg/kg): well tolerated | Ctrough (Mouse i.p. PK; i.p. 100 mg/kg in DMSO): 90 nM | dose range inhibiting ubiquitination by CRL4 (E3 CRL4^CRBN): ~10 µM | AUC ([1]; BALB/c nude, plasma, ip, G3, 50 mg/kg Q2D, read-out: AUC over 24 hours in plasma): ~3.3 µM·h | AUC ([1]; BALB/c nude, tumor, ip, G4, 50 mg/kg QD, read-out: AUC over 24 hours in tumor): ~4.7 µM·h | tumor AUC higher than with #33-11 ([1]; in vivo): 6 fold | Permeability (CACO-2): highly permeable and high | PGP substrate (CACO-2): not a substrate | tumor inhibition value (MV4-11 tumors; G2, 25 mg/kg, Q2D): 18.60% | tumor inhibition value (MV4-11 tumors; G3, 50 mg/kg, Q2D): 25.15% | tumor inhibition value (MV4-11 tumors; G4, 50 mg/kg, QD): 38.90% | safety by body weight loss guideline (>20% toxic) (MV4-11 tumors; tested dose levels 25 and 50 mg/kg): judged to be safe | discharge of Cdc34-Ub and production of Ub2 by ROC1-CUL1 (ROC1-CUL1): no effect
